{"source": "the supplement of paper PMC10331698", "compound": "CN(C(=O)C(F)(F)C(F)(F)C(F)(F)F)[Si](C)(C)C [N-Methyl-N-trimethylsilylheptafluorobutyramide] (in DMSO)", "assay": "level (log10 ratio to DMSO vehicle control); higher = higher biomarker level / cell amount than vehicle control", "description": "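BioMAP Diversity Plus panel of 12 human primary cell co-culture systems (3C, 4H, LPS, SAg, BT, BF4T, BE3C, CASM3C, HDF3CGF, KF3CT, MyoF, Mphg). Compounds were added 1 h before stimulation and left for 24 h (MyoF 48 h; BT 72 h for soluble read-outs or 6 d for IgG). Biomarkers were read by ELISA, cytotoxicity by SRB, PBMC viability and proliferation by Alamar Blue. Each well value was divided by the mean of 8 DMSO control wells on the same plate and log10 transformed; duplicate blinded samples were tested at 4 concentrations.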", "note": "± gives the standard deviation of the averaged measurements.", "data": [{"test system": "HDF3CGF:Collagen I", "values": [{"measurement": "level (log10)", "setting": "6700 nM", "value": "-0.058 ± 0.021"}, {"measurement": "level (log10)", "setting": "20000 nM", "value": "-0.0195 ± 0.053"}, {"measurement": "level (log10)", "setting": "60000 nM", "value": "-0.0335 ± 0.039"}]}, {"test system": "CASM3C:CD106/VCAM-1", "values": [{"measurement": "level (log10)", "setting": "6700 nM", "value": "-0.007 ± 0.0042"}, {"measurement": "level (log10)", "setting": "20000 nM", "value": "-0.027 ± 0.0057"}, {"measurement": "level (log10)", "setting": "60000 nM", "value": "-0.0175 ± 0.013"}]}, {"test system": "HDF3CGF:CD106/VCAM-1", "values": [{"measurement": "level (log10)", "setting": "6700 nM", "value": "-0.0155 ± 0.0092"}, {"measurement": "level (log10)", "setting": "20000 nM", "value": "-0.0165 ± 0.0021"}, {"measurement": "level (log10)", "setting": "60000 nM", "value": "-0.024 ± 0.0028"}]}, {"test system": "KF3CT:CXCL8/IL-8", "values": [{"measurement": "level (log10)", "setting": "6700 nM", "value": "0.001 ± 0.013"}, {"measurement": "level (log10)", "setting": "20000 nM", "value": "-0.0105 ± 0.00071"}, {"measurement": "level (log10)", "setting": "60000 nM", "value": "0.0115 ± 0.022"}]}, {"test system": "HDF3CGF:EGFR", "values": [{"measurement": "level (log10)", "setting": "6700 nM", "value": "-0.0055 ± 0.005"}, {"measurement": "level (log10)", "setting": "20000 nM", "value": -0.005}, {"measurement": "level (log10)", "setting": "60000 nM", "value": "0.0195 ± 0.0092"}]}, {"test system": "CASM3C:CD141/Thrombomodulin", "values": [{"measurement": "level (log10)", "setting": "6700 nM", "value": "-0.0195 ± 0.025"}, {"measurement": "level (log10)", "setting": "20000 nM", "value": "-0.027 ± 0.011"}, {"measurement": "level (log10)", "setting": "60000 nM", "value": "-0.011 ± 0.0042"}]}, {"test system": "KF3CT:PAI-I", "values": [{"measurement": "level (log10)", "setting": "6700 nM", "value": "-0.02 ± 0.025"}, {"measurement": "level (log10)", "setting": "20000 nM", "value": "-0.004 ± 0.014"}, {"measurement": "level (log10)", "setting": "60000 nM", "value": "-0.0005 ± 0.0078"}]}, {"test system": "3C:CCL2/MCP-1", "values": [{"measurement": "level (log10)", "setting": "6700 nM", "value": "-0.009 ± 0.014"}, {"measurement": "level (log10)", "setting": "20000 nM", "value": "-0.0075 ± 0.0064"}, {"measurement": "level (log10)", "setting": "60000 nM", "value": "0.0005 ± 0.016"}]}, {"test system": "HDF3CGF:CD54/ICAM-1", "values": [{"measurement": "level (log10)", "setting": "6700 nM", "value": "-0.009 ± 0.013"}, {"measurement": "level (log10)", "setting": "20000 nM", "value": "-0.0085 ± 0.018"}, {"measurement": "level (log10)", "setting": "60000 nM", "value": "0.011 ± 0.023"}]}, {"test system": "KF3CT:CXCL10/IP-10", "values": [{"measurement": "level (log10)", "setting": "6700 nM", "value": "-0.0095 ± 0.026"}, {"measurement": "level (log10)", "setting": "20000 nM", "value": "-0.011 ± 0.021"}, {"measurement": "level (log10)", "setting": "60000 nM", "value": "-0.0085 ± 0.0021"}]}, {"test system": "KF3CT:IL-1alpha", "values": [{"measurement": "level (log10)", "setting": "6700 nM", "value": "-0.0155 ± 0.0021"}, {"measurement": "level (log10)", "setting": "20000 nM", "value": "-0.017 ± 0.0099"}, {"measurement": "level (log10)", "setting": "60000 nM", "value": "0.008 ± 0.034"}]}, {"test system": "HDF3CGF:CXCL8/IL-8", "values": [{"measurement": "level (log10)", "setting": "6700 nM", "value": "-0.0015 ± 0.0092"}, {"measurement": "level (log10)", "setting": "20000 nM", "value": "-0.003 ± 0.0057"}, {"measurement": "level (log10)", "setting": "60000 nM", "value": "0.0075 ± 0.0078"}]}, {"test system": "HDF3CGF:PAI-I", "values": [{"measurement": "level (log10)", "setting": "6700 nM", "value": "-0.013 ± 0.0042"}, {"measurement": "level (log10)", "setting": "20000 nM", "value": "0.0015 ± 0.023"}, {"measurement": "level (log10)", "setting": "60000 nM", "value": "0.0385 ± 0.04"}]}, {"test system": "HDF3CGF:TIMP-1", "values": [{"measurement": "level (log10)", "setting": "6700 nM", "value": "-0.036 ± 0.017"}, {"measurement": "level (log10)", "setting": "20000 nM", "value": "-0.038 ± 0.018"}, {"measurement": "level (log10)", "setting": "60000 nM", "value": "-0.031 ± 0.0071"}]}, {"test system": "lMphg:CD69", "values": [{"measurement": "level (log10)", "setting": "6700 nM", "value": "0.0015 ± 0.005"}, {"measurement": "level (log10)", "setting": "20000 nM", "value": "-0.0075 ± 0.035"}, {"measurement": "level (log10)", "setting": "60000 nM", "value": "-0.039 ± 0.045"}]}, {"test system": "KF3CT:TIMP-2", "values": [{"measurement": "level (log10)", "setting": "6700 nM", "value": "-0.0315 ± 0.011"}, {"measurement": "level (log10)", "setting": "20000 nM", "value": "-0.0145 ± 0.0078"}, {"measurement": "level (log10)", "setting": "60000 nM", "value": "0.0095 ± 0.035"}]}, {"test system": "lMphg:IL-1alpha", "values": [{"measurement": "level (log10)", "setting": "6700 nM", "value": "-0.038 ± 0.0014"}, {"measurement": "level (log10)", "setting": "20000 nM", "value": "-0.034 ± 0.0071"}, {"measurement": "level (log10)", "setting": "60000 nM", "value": "0.017 ± 0.052"}]}, {"test system": "HDF3CGF:M-CSF", "values": [{"measurement": "level (log10)", "setting": "6700 nM", "value": "-0.0375 ± 0.03"}, {"measurement": "level (log10)", "setting": "20000 nM", "value": "-0.038 ± 0.0085"}, {"measurement": "level (log10)", "setting": "60000 nM", "value": "-0.029 ± 0.055"}]}, {"test system": "CASM3C:IL-6", "values": [{"measurement": "level (log10)", "setting": "6700 nM", "value": "-0.0165 ± 0.0035"}, {"measurement": "level (log10)", "setting": "20000 nM", "value": "-0.0105 ± 0.0035"}, {"measurement": "level (log10)", "setting": "60000 nM", "value": "0.0035 ± 0.049"}]}, {"test system": "HDF3CGF:TIMP-2", "values": [{"measurement": "level (log10)", "setting": "6700 nM", "value": "-0.0155 ± 0.036"}, {"measurement": "level (log10)", "setting": "20000 nM", "value": "0.002 ± 0.017"}, {"measurement": "level (log10)", "setting": "60000 nM", "value": "-0.0065 ± 0.049"}]}]}
